Here are results for one compound from article PMC8306139, “A Novel Dialkylamino-Functionalized Chalcone, DML6, Inhibits Cervical Cancer Cell Proliferation, In Vitro, via Induction of Oxidative Stress, Intrinsic Apoptosis and Mitotic Catastrophe” (Molecules, 2021).

The test system of one assay is caspase-7. The assay is described as follows: Western blot, cleaved caspase-7. It counts as cell-based. To be noted: OV2008, 5 or 20 µM, vs vehicle. As to the method:
(§1) The OV2008 cells were lysed to obtain total cellular protein fractions using Mammalian Protein Extraction Reagent (Catalog # 78501, M-PER™, Thermo Fisher Scientific, Waltham, MA, USA). The cells were seeded in […] at a density of 1 × 10^6 and incubated with 5 or 20 µM of DML6 or 1 µM of doxorubicin (Catalog # T1-2-, TargetMol, Boston, MA, USA) (a positive control) for 24 h. The following day, the cells were washed with ice-cold PBS, scraped using a cell scrapper and collected in Eppendorf tubes. The tubes were centrifuged at 1500 RPM at 4 °C for 5 min. The solution was discarded and replaced with 70 µL of the cell lysis buffer (M-PER reagent, 100 mM Sodium Orthovanadate (NaOV) at a final concentration of 2.5 mM) and a 100X protease inhibitor cocktail (Catalog # P8340, Sigma-Aldrich, St. Louis, MO, USA, final concentration of 1X, containing of aprotinin, bestatin, E-64, leupeptin and pepstatin). Thirty minutes later, the resulting solution was centrifuged at 10,000 RPM at 4 °C for 5 min and the supernatant was collected. The protein concentration of the cell extracts was determined using the bicinchoninic acid (BCA) (Catalog # 786-570, G-Biosciences, Saint Louis, MO, USA) quantification assay. […] Finally, the amount of protein in each blot was quantified using the Image J software (NIH, Bethesda, MD, USA). All data were calculated as a ratio to β-actin.
In general terms: A western blot detects proteins with antibodies after separation by electrophoresis.

For assay [1], the system named is OV2008 cells. The assay is described as follows: Reactive oxygen species detection (H2DCFDA). As to conditions: 5 or 20 μM, 24 h, vs vehicle. The assay is classed as cell-based. As to the method: The total intracellular level of reactive oxygen species (ROS) was determined by staining the cells with 2,7-dichlorofluorescein diacetate (H2DCFDA). In this assay, cellular esterases cleave the nonfluorescent H2DCFDA molecule to yield H2DCF, by removing the lipophilic moiety (a diacetate group). Subsequently, H2DCF is oxidized by ROS to 2′-7′dichlorofluorescein (DCF), which is a highly fluorescent dye. ROS levels were quantified based on the fluorescence level of DCF detected using EVOS microscope.
The compound, […] (H2DCFDA), was used to detect ROS as previously described. OV2008 cells were seeded at a density of 250,000 cells/ml. After 24 h of incubation with the vehicle, 5 or 20 µM of DML6, the cells were incubated with H2DCFDA for 30 min at 37 °C. The cells were washed 3 times with 1X PBS for 5 min. The levels of reactive oxygen species were then determined based on the fluorescence level of the oxidized DCFDA dye (excitation at 485 nm and emission at 535), using a EVOS digital fluorescent microscope at 20× magnification.

The subject of assay [2] is OV2008 cells. The assay is described as follows: IncuCyte live-cell morphology study (confluence). The assay is classed as cell-based. As to conditions: 72 hours, vehicle ≈70%. How it is done:
Real-time live cell analysis was performed as previously described. In order to determine the morphological changes induced by DML6, OV2008 cells were seeded at 4000 cells/well in a 96-well plate and incubated overnight at 37 °C, with 5% CO2 in an incubator. […] IncuCyte was then programmed to capture the images at different time points (0, 24, 48 and 72 h), using the integrated IncuCyte S3 software version 2020B (Essen BioScience, Ann Arbor, MI, USA).

Another assay relates to HEK293. As to the kind of experiment: MTT assay, HEK293. To be noted: read-out: IC50 ± SD Kidney HEK293. The assay is classed as cell-based, human.
Another assay relates to Bak. As to the kind of experiment: Western blot, Bak. It counts as cell-based. To be noted: OV2008, 5 and 20 μM, 24 h, vs vehicle. How it is done: as §1
The next assay has as its system LOVO. The assay is described as follows: MTT assay, LOVO. The assay is classed as cell-based. As to conditions: Homo sapiens, LoVo, 72 h, read-out: IC50 ± SD Colon LOVO. In general terms: Tetrazolium assays rely on reduction of a dye to a coloured formazan, in cell work by metabolically active cells.
The test system of the next assay is A549. The assay is described as follows: MTT assay, A549. It counts as cell-based. As to conditions: Homo sapiens, A549, 72 h, read-out: IC50 ± SD Lung A549.
Another assay deals with OV2008. The assay is described as follows: MTT assay, OV2008. The assay is classed as cell-based. As to conditions: 72 h, read-out: IC50 ± SD Cervical OV2008.

The structures appear in SMILES notation. Like-named read-outs stand apart in the source and are kept apart here. A value given as a limit tells only on which side of the number the result lay.

What is called IC50 is the concentration needed to halve the response being measured.

Description for A549: (§2) The concentration of the tested compounds that produced a 50% inhibition of cell growth (IC50) was determined.
(§3) A panel of cancer cell lines, including cervical (OV2008 and HeLa), breast (MDA-MB-231), lung (A549) and colon (LOVO), prostate (DU145), human embryonic kidney cells (HEK293), human colon fibroblast cells (CRL1459), and Chinese hamster ovary cells (CHO), were grown as adherent monolayers in flasks containing Dulbecco’s modified Eagle medium (DMEM), supplemented with 10% fetal bovine serum (FBS) and 1% penicillin and streptomycin, in a humidified incubator with 5% CO2 at 37 °C.
(§4) The cells were seeded evenly (180 μL/well) in 96-well plates, at a density of 3000–5000 cells/well and incubated with serial dilutions of the compounds ranging from 0.1 to 100 μM. The MTT dye (4 mg/ml) was added after 72 h of incubation and incubated with the cells for an additional 4 h at 37 °C, allowing the viable cells to biotransform the yellow-colored MTT into dark-blue formazan crystals. Following incubation, the medium was aspirated, and the formazan crystals were dissolved by adding 100 μL of DMSO to each well. Cytation™ 5 and Cytation™ 7 multi-mode detector (Bio Tek Instruments, Winooski, VT, USA) was used to determine the absorbance readings at a wavelength of 570 nm. The IC50 values were determined based on 3 separate experiments, with each experiment carried out in triplicate.
Description for HEK293: as §2, §3, §4
Description for LOVO: as §2, §3, §4

`CN(C)c1ccc(/C=C/C(=O)c2ccc(Cl)cc2Cl)cc1` [DML6, (E)-1-[2,4-dichlorophenyl]-3-(4-(dimethylamino)phenyl)prop-2-en-1-one]: the “cleavage (activation) of caspase-7” value with caspase-7 is “significantly increased the cleavage”. For the same compound, the “levels of DCF fluorescence (ROS)” value in the assay on OV2008 cells [1] is “significantly higher”. Moreover, the “confluence of OV2008” value with OV2008 cells [2] (5 µM) was “≈ 40%”; in the assay with OV2008 cells [2] (20 µM), “≈ 10%”. The IC50 is 70 ± 42.4 µM in the assay on HEK293 (72 h); over 65 µM with HEK293 (Homo sapiens, HEK293, 72 h); 65 ± 49.5 µM in the assay with LOVO; 84.9 ± 21.4 µM in the assay on A549; 7.8 µM with OV2008. Besides, in the assay with Bak, the “expression of the pro-apoptotic protein Bak” value is reported as “significantly increased the expression”.
